Tests used:
[1] = biological target: Serotonin 2 receptors; 5-HT2a & 5-HT2c (Homo sapiens) (UniProt P28223+P28335); assay: Relative affinity for 5-HT2C over 5-HT2A receptors; type: protein assay
[2] = biological target: T1, 5-hydroxytryptamine receptor 2C (Homo sapiens, UniProt P28335); assay: Affinity for 5-hydroxytryptamine 2C receptor
T1 sequence (P28335 whole entry): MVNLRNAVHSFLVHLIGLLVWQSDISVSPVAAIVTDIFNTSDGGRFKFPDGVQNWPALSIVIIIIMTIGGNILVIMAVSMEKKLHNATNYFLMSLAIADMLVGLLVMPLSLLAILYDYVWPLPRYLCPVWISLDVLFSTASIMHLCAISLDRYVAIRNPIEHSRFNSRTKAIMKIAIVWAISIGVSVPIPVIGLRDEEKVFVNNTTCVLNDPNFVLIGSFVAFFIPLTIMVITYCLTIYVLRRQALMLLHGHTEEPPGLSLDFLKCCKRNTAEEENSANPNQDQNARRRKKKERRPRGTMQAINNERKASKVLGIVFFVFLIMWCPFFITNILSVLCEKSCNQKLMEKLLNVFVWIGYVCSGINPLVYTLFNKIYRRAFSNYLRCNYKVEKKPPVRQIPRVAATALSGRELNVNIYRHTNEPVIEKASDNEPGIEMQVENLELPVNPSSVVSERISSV

[3] = biological target: T2, 5-hydroxytryptamine receptor 2A (Homo sapiens, UniProt P28223); assay: Affinity for 5-hydroxytryptamine 2A receptor
T2 sequence (P28223 whole entry): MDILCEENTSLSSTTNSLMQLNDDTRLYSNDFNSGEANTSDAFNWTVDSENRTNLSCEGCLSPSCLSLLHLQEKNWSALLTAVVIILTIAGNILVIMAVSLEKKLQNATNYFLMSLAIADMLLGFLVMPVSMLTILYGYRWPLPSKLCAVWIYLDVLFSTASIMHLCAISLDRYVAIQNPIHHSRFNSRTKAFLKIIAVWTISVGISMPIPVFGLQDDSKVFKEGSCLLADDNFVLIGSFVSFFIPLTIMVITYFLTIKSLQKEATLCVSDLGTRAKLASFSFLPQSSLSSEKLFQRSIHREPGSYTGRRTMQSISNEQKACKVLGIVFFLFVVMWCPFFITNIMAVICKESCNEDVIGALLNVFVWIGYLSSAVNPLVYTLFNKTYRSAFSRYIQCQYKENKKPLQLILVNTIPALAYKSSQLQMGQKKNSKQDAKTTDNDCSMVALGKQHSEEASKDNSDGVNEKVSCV

[4] = biological target: T2, 5-hydroxytryptamine receptor 2A; assay: Binding affinity towards 5-hydroxytryptamine 2A receptor was determined at a concentration of 0.00001 mol/L
[5] = biological target: T3, 5-hydroxytryptamine receptor 2C (Homo sapiens) (UniProt P28335); assay: Binding affinity towards 5-hydroxytryptamine 2C receptor was determined at a concentration of 0.00001 mol/L
T3 sequence (whole entry): T1 sequence (P28335 whole entry)

[6] = biological target: T3, 5-hydroxytryptamine receptor 2C (Homo sapiens); assay: Binding affinity towards 5-hydroxytryptamine 2C receptor was determined at a concentration of 0.000001 mol/L
[7] = biological target: T2, 5-hydroxytryptamine receptor 2A; assay: Binding affinity towards 5-hydroxytryptamine 2A receptor was determined at a concentration of 0.000001 mol/L

Chain of Serotonin 2 receptors; 5-HT2a & 5-HT2c (Homo sapiens) (P28223 whole entry, looked up, one chain of several): as the sequence (P28223 whole entry) above

| SMILES | Ratio [1] | Ki [2] [nM] | Ki [3] [nM] | inhibition [4] [%] | inhibition [5] [%] | inhibition [6] [%] | inhibition [7] [%] |
| --- | --- | --- | --- | --- | --- | --- | --- |
| Nc1nc(SCCN2CCN(Cc3ccccc3C(F)(F)F)CC2)nc(N)c1Cc1ccccc1 | 2.9 | 21.4 | 61.1 | – | – | – | – |
| Nc1nc(SCCN2CCN(Cc3ccc([N+](=O)[O-])cc3)CC2)nc(N)c1CC1CCCCC1 | – | – | – | 10 | 32 | – | – |
| COc1ccc(Cc2c(N)nc(SCCN3CCN(Cc4ccccc4C)CC3)nc2N)cc1 | 0.7 | 16.4 | 11.5 | – | – | – | – |
| COc1cc(Cc2c(N)nc(SCCN3CCN(Cc4ccccc4Cl)CC3)nc2N)cc(OC)c1OC | 0.2 | 18.3 | 4.3 | – | – | – | – |
| Nc1cc(N)nc(SCCN2CCN(Cc3ccc([N+](=O)[O-])cc3)CC2)n1 | – | – | – | 89 | 77 | – | – |
| Nc1nc(SCCN2CCN(Cc3ccc([N+](=O)[O-])cc3)CC2)nc(N)c1Cc1ccccc1 | – | – | – | – | – | 67 | 99 |
| COc1ccc(Cc2c(N)nc(SCCN3CCN(Cc4ccc(C)cc4)CC3)nc2N)cc1 | 0.04 | 300 | 12.5 | – | – | – | – |
| Nc1cc(N)nc(SCCCN2CCN(Cc3ccc([N+](=O)[O-])cc3)CC2)n1 | – | – | – | 54 | 21 | – | – |

Continued by falling Ki [2], values first:

| Ratio [1] | Ki [2] [nM] | Ki [3] [nM] | inhibition [4] [%] | inhibition [5] [%] | inhibition [6] [%] | inhibition [7] [%] | SMILES |
| --- | --- | --- | --- | --- | --- | --- | --- |
| 1.5 | 11.9 | 18.3 | – | – | – | – | Nc1nc(SCCN2CCN(Cc3ccccc3Cl)CC2)nc(N)c1Cc1ccccc1 |
| 0.6 | 10.4 | 5.7 | – | – | – | – | COc1ccc(Cc2c(N)nc(SCCN3CCN(Cc4ccccc4Cl)CC3)nc2N)cc1 |
| 7.7 | 9.1 | 69.9 | – | – | – | – | CCOc1ccccc1Cc1c(N)nc(SCCN2CCN(Cc3cccc(C(F)(F)F)c3)CC2)nc1N |
| 1.4 | 8.7 | 11.8 | – | – | – | – | Nc1nc(SCCN2CCN(Cc3ccccc3Cl)CC2)nc(N)c1Cc1ccccc1Cl |
| 14 | 8.6 | 121 | – | – | – | – | CC(C)Oc1ccccc1Cc1c(N)nc(SCCN2CCN(Cc3cccc(C(F)(F)F)c3)CC2)nc1N |
| 6.2 | 7.7 | 47.7 | – | – | – | – | COc1ccccc1Cc1c(N)nc(SCCN2CCN(Cc3ccccc3C(F)(F)F)CC2)nc1N |
| 15 | 6.2 | 93.2 | – | – | – | – | Nc1nc(SCCN2CCN(Cc3cccc(C(F)(F)F)c3)CC2)nc(N)c1Cc1ccccc1O |
| 11 | 5.5 | 60.4 | – | – | – | – | COc1ccccc1Cc1c(N)nc(SCCN2CCN(Cc3cccc(C(F)(F)F)c3)CC2)nc1N |
| 4.2 | 5.5 | 22.8 | – | – | – | – | Nc1nc(SCCN2CCN(Cc3ccccc3Cl)CC2)nc(N)c1Cc1ccccc1O |
| 9.1 | 4.9 | 44.6 | – | – | – | – | COc1cccc(Cc2c(N)nc(SCCN3CCN(Cc4cccc(C(F)(F)F)c4)CC3)nc2N)c1 |

Source: ChEMBL document CHEMBL1134934, “Synthesis and evaluation of 5-HT(2A) and 5-HT(2C) receptor binding affinities of novel pyrimidine derivatives” (Bioorg Med Chem Lett, 2002)
